Assay results published in patent US10822632B2, “Medium for detecting Staphylococcus aureus, sheet for detecting S. aureus comprising same, and method for detecting S. aureus using same” (DAI NIPPON PRINTING CO., LTD., priority 2016, dated 2020).

Experiments:
Experiment in all cases: Experiment 4: growth on culture sheet containing colistin sodium methanesulfonate
Format in all cases: cell-based
[1] = test system: Staphylococcus sciuri ATCC29062; set-up: key to Growth condition of the colony: the term “Inhibited” indicates the condition under which the growth was inhibited; a blank column indicates that a colony was formed under normal growth condition; conditions: for Growth condition of the colony: culture 24 hours
Procedure: (§1) A given type of microbial strains to be tested were inoculated into a liquid medium (SCD broth medium), and culture was conducted at 35° C. for 24 hours to prepare a test microbial suspension. This test microbial suspension was diluted with phosphate buffered physiological saline to adjust the cell density to about 1 to 500 cfu/ml. The resulting test microbial sample (1 ml) was inoculated into the culture layer of the microorganism culture sheet prepared with the use of the medium liquid containing the components shown in Table 1 using a micropipette. The microorganism culture sheet into which the sample had been inoculated was allowed to stand in an incubator and culture was then conducted at 35° C. for 24 or 48 hours. After the completion of culture, the microorganism culture sheet was removed from the incubator. The color of the colony formed in the culture layer of the microorganism culture sheet and the color intensity were visually inspected. Each test microbial strain was subjected to the experiment described above. The names of the microbial strains to be tested used for the experiment and the conditions and the color of the colonies formed by the strains are shown in Table 2.
(§2) A test microbial sample was prepared in the same manner as in Experiment 1. Also, the microorganism culture sheet was prepared in the same manner as in Experiment 1. […] With the use of a micropipette, 1 ml of the test microbial sample was inoculated into a culture layer of the microorganism culture sheet. In the same manner as with Experiment 1, the microorganism culture sheet into which the sample had been inoculated was subjected to incubation, culture was conducted for 24 hours, and the color of the colony formed in the culture layer of the microorganism culture sheet and the color intensity were visually inspected. Each test microbial strain was subjected to the experiment described above. The names of the microbial strains to be tested used for the experiment and the conditions of the colonies formed by the strains are shown in Table 5. […] The colistin sodium methanesulfonate concentration indicated in the upper column is mass concentration (mg/cm^3) relative to the total volume of the dried culture layer before the sample was inoculated thereinto, and the concentration indicated in the lower column is mass concentration (mg/ml) relative to the total volume of the sample solution that was inoculated into the culture layer at the time of use.

[2] = test system: Staphylococcus xylosus NBRC109770; set-up: key to Growth condition of the colony: the term “Inhibited” indicates the condition under which the growth was inhibited; a blank column indicates that a colony was formed under normal growth condition; conditions: for Growth condition of the colony: culture 24 hours
Procedure: as §1, §2

[3] = test system: Staphylococcus aureus NBRC12732; set-up: key to Growth condition of the colony: the term “Inhibited” indicates the condition under which the growth was inhibited; a blank column indicates that a colony was formed under normal growth condition; conditions: for Growth condition of the colony: culture 24 hours
Procedure: as §1, §2

[4] = test system: Staphylococcus carnosus (Derived from roast beef); set-up: key to Growth condition of the colony: the term “Inhibited” indicates the condition under which the growth was inhibited; a blank column indicates that a colony was formed under normal growth condition; conditions: for Growth condition of the colony: culture 24 hours
Procedure: as §1, §2

[5] = test system: Staphylococcus saprophyticus subsp. saprophyticus NBRC102446; set-up: key to Growth condition of the colony: the term “Inhibited” indicates the condition under which the growth was inhibited; a blank column indicates that a colony was formed under normal growth condition; conditions: for Growth condition of the colony: culture 24 hours
Procedure: as §1, §2

[6] = test system: Staphylococcus intermedius ATCC29663; set-up: key: the term “Inhibited” indicates the condition under which the growth was inhibited; a blank column indicates that a colony was formed under normal growth condition; conditions: culture 24 hours
Procedure: as §1, §2

[7] = test system: Staphylococcus aureus NBRC100910; conditions: tested concentration of 0.3 to 4.1 mg/cm^3 (0.1 to 1.6 mg/ml in the sample solution)
Procedure: as §1
(§3) A test microbial sample was prepared in the same manner as in Experiment 1. Also, the microorganism culture sheet was prepared in the same manner as in Experiment 1. […]

[8] = test system: Staphylococcus aureus ATCC25923; conditions: tested concentration of 0.3 to 4.1 mg/cm^3 (0.1 to 1.6 mg/ml in the sample solution)
Procedure: as §1, §3

[9] = colistin 2.3 mg/cm^3 dried culture layer (0.9 mg/ml sample solution)
[10] = colistin 2.5 mg/cm^3 dried culture layer (1 mg/ml sample solution)
[11] = colistin 2.8 mg/cm^3 dried culture layer (1.1 mg/ml sample solution)
[12] = colistin 3.1 mg/cm^3 dried culture layer (1.2 mg/ml sample solution)
[13] = colistin 3.3 mg/cm^3 dried culture layer (1.3 mg/ml sample solution)
[14] = colistin 3.6 mg/cm^3 dried culture layer (1.4 mg/ml sample solution)
[15] = colistin 3.8 mg/cm^3 dried culture layer (1.5 mg/ml sample solution)
[16] = colistin 4.1 mg/cm^3 dried culture layer (1.6 mg/ml sample solution)
[17] = mass concentration in the sample solution
[18] = mass concentration relative to total volume of dried culture layer
[19] = colistin 1.3 mg/cm^3 dried culture layer (0.5 mg/ml sample solution)
[20] = colistin 1.5 mg/cm^3 dried culture layer (0.6 mg/ml sample solution)
[21] = colistin 1.8 mg/cm^3 dried culture layer (0.7 mg/ml sample solution)
[22] = colistin 2.0 mg/cm^3 dried culture layer (0.8 mg/ml sample solution)

## colistin sodium methanesulfonate
[1]; [9]
  Growth condition of the colony: Inhibited
[1]; [10]
  Growth condition of the colony: Inhibited
[1]; [11]
  Growth condition of the colony: Inhibited
[1]; [12]
  Growth condition of the colony: Inhibited
[1]; [13]
  Growth condition of the colony: Inhibited
[1]; [14]
  Growth condition of the colony: Inhibited
[1]; [15]
  Growth condition of the colony: Inhibited
[1]; [16]
  Growth condition of the colony: Inhibited
[1]; [17]
  Concentration at which growth was inhibited: ≥ 0.9 mg/mL
[1]; [18]
  Concentration at which growth was inhibited: ≥ 2.3 mg/mL
[2]; [9]
  Growth condition of the colony: Inhibited
[2]; [10]
  Growth condition of the colony: Inhibited
[2]; [11]
  Growth condition of the colony: Inhibited
[2]; [12]
  Growth condition of the colony: Inhibited
[2]; [13]
  Growth condition of the colony: Inhibited
[2]; [14]
  Growth condition of the colony: Inhibited
[2]; [15]
  Growth condition of the colony: Inhibited
[2]; [16]
  Growth condition of the colony: Inhibited
[2]; [17]
  Concentration at which growth was inhibited: ≥ 0.9 mg/mL
[2]; [18]
  Concentration at which growth was inhibited: ≥ 2.3 mg/mL
[3]; [12]
  Growth condition of the colony: Inhibited
[3]; [13]
  Growth condition of the colony: Inhibited
[3]; [14]
  Growth condition of the colony: Inhibited
[3]; [15]
  Growth condition of the colony: Inhibited
[3]; [16]
  Growth condition of the colony: Inhibited
[3]; [17]
  Concentration at which growth was inhibited: 1.2 mg/mL
[3]; [18]
  Concentration at which growth was inhibited: 3.1 mg/mL
[4]; [19]
  Growth condition of the colony: Inhibited
[4]; [20]
  Growth condition of the colony: Inhibited
[4]; [21]
  Growth condition of the colony: Inhibited
[4]; [22]
  Growth condition of the colony: Inhibited
[4]; [9]
  Growth condition of the colony: Inhibited
[4]; [10]
  Growth condition of the colony: Inhibited
[4]; [11]
  Growth condition of the colony: Inhibited
[4]; [12]
  Growth condition of the colony: Inhibited
[4]; [13]
  Growth condition of the colony: Inhibited
[4]; [14]
  Growth condition of the colony: Inhibited
[4]; [15]
  Growth condition of the colony: Inhibited
[4]; [16]
  Growth condition of the colony: Inhibited
[4]; [17]
  Concentration at which growth was inhibited: ≥ 0.5 mg/mL
[4]; [18]
  Concentration at which growth was inhibited: ≥ 1.3 mg/mL
[5]; colistin 0.5 mg/cm^3 dried culture layer (0.2 mg/ml sample solution)
  Growth condition of the colony: Inhibited
[5]; colistin 0.8 mg/cm^3 dried culture layer (0.3 mg/ml sample solution)
  Growth condition of the colony: Inhibited
[5]; colistin 1.0 mg/cm^3 dried culture layer (0.4 mg/ml sample solution)
  Growth condition of the colony: Inhibited
[5]; [19]
  Growth condition of the colony: Inhibited
[5]; [20]
  Growth condition of the colony: Inhibited
[5]; [21]
  Growth condition of the colony: Inhibited
[5]; [22]
  Growth condition of the colony: Inhibited
[5]; [9]
  Growth condition of the colony: Inhibited
[5]; [10]
  Growth condition of the colony: Inhibited
[5]; [11]
  Growth condition of the colony: Inhibited
[5]; [12]
  Growth condition of the colony: Inhibited
[5]; [13]
  Growth condition of the colony: Inhibited
[5]; [14]
  Growth condition of the colony: Inhibited
[5]; [15]
  Growth condition of the colony: Inhibited
[5]; [16]
  Growth condition of the colony: Inhibited
[5]; [17]
  Concentration at which growth was inhibited: ≥ 0.2 mg/mL
[5]; [18]
  Concentration at which growth was inhibited: ≥ 0.5 mg/mL
[6]; [13]
  Growth condition of the colony: Inhibited
[6]; [14]
  Growth condition of the colony: Inhibited
[6]; [15]
  Growth condition of the colony: Inhibited
[6]; [16]
  Growth condition of the colony: Inhibited
[7]
  Growth inhibition: did not inhibit the growth
[8]
  Growth inhibition: did not inhibit the growth
